Columns and labels:
[1] = molecular target: T1, Laforin (Homo sapiens, UniProt O95278); assay: Inhibition of Laforin (unknown origin) expressed in Escherichia coli using pNPP substrate after 5 mins by spectrophotometric analysis
T1 sequence (O95278 whole entry): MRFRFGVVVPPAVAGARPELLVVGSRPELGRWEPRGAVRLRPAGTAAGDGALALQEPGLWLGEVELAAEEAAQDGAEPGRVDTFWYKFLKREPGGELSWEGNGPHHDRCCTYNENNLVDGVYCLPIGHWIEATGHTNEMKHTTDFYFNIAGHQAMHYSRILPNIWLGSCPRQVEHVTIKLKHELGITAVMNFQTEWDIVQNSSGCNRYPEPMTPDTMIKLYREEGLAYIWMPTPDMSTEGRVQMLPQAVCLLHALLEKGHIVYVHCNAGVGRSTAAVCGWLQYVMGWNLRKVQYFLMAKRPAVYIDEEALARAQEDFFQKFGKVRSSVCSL

[2] = molecular target: Receptor-type tyrosine-protein phosphatase alpha (Homo sapiens, UniProt P18433); assay: Inhibition of PTPalpha (unknown origin) expressed in Escherichia coli using pNPP substrate after 5 mins by spectrophotometric analysis
[3] = molecular target: Receptor-type tyrosine-protein phosphatase F (Homo sapiens, UniProt P10586); assay: Inhibition of LAR (unknown origin) expressed in Escherichia coli using pNPP substrate after 5 mins by spectrophotometric analysis
[4] = molecular target: T2, Tyrosine-protein phosphatase non-receptor type 2 (Homo sapiens, UniProt P17706); assay: Inhibition of TCPTP (unknown origin) expressed in Escherichia coli using pNPP substrate after 5 mins by spectrophotometric analysis
T2 sequence (P17706 whole entry): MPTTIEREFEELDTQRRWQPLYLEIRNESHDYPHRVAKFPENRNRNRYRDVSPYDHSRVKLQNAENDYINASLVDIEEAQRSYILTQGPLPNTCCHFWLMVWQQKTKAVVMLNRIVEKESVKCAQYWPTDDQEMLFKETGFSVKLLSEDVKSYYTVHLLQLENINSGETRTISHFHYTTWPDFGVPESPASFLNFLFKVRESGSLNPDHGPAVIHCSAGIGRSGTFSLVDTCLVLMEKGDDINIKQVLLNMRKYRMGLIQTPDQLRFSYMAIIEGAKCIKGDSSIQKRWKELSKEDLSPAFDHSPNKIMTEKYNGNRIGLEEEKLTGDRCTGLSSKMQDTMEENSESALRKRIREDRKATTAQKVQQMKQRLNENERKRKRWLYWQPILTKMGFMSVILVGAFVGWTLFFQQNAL

Receptor-type tyrosine-protein phosphatase F, sequence (P10586 whole entry): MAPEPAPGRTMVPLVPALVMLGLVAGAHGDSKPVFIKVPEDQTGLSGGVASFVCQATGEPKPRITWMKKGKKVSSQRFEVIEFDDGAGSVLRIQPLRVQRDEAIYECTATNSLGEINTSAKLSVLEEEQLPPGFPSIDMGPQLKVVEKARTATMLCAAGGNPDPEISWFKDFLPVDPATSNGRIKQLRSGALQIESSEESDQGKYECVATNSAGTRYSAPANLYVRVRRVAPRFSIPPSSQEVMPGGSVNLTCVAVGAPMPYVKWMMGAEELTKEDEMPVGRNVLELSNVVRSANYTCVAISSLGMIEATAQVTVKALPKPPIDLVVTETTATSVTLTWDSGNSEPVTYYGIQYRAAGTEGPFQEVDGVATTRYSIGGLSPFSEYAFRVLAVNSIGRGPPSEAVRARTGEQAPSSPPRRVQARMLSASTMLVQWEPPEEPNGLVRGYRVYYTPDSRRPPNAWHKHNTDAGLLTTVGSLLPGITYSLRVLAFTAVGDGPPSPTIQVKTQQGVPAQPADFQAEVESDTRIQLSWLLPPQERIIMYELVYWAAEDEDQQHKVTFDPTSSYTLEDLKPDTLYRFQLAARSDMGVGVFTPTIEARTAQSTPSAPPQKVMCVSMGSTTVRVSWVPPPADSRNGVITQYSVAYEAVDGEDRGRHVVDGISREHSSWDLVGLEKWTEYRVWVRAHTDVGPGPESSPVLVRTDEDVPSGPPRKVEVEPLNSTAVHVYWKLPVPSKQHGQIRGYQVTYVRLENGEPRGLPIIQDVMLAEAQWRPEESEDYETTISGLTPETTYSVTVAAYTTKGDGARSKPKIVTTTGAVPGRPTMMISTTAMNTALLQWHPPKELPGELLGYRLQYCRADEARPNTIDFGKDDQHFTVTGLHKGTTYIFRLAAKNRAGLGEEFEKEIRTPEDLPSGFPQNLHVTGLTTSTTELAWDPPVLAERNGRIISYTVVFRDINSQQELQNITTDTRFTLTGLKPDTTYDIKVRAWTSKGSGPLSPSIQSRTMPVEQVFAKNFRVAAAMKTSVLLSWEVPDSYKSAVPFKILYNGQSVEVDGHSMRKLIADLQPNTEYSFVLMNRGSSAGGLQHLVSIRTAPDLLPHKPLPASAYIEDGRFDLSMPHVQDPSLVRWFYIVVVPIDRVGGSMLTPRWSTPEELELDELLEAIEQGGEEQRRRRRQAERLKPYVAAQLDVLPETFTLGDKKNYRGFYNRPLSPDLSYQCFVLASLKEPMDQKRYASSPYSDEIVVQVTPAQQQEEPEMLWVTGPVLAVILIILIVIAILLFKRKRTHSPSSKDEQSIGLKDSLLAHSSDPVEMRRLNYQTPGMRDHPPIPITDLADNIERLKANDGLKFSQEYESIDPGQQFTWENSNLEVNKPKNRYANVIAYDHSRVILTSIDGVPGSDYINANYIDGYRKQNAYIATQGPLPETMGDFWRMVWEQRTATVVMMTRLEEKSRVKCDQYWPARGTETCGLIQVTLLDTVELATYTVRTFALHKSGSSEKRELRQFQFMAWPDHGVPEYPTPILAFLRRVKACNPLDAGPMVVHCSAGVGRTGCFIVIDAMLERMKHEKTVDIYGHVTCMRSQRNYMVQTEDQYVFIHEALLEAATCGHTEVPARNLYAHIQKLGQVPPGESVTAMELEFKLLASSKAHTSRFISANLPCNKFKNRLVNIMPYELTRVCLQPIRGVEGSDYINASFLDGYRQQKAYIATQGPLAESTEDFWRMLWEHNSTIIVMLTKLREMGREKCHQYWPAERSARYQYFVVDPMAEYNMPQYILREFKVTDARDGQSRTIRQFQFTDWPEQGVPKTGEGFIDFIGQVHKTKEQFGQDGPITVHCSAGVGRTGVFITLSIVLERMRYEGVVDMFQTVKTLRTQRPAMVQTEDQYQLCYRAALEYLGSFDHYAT
Receptor-type tyrosine-protein phosphatase alpha, sequence (P18433 whole entry): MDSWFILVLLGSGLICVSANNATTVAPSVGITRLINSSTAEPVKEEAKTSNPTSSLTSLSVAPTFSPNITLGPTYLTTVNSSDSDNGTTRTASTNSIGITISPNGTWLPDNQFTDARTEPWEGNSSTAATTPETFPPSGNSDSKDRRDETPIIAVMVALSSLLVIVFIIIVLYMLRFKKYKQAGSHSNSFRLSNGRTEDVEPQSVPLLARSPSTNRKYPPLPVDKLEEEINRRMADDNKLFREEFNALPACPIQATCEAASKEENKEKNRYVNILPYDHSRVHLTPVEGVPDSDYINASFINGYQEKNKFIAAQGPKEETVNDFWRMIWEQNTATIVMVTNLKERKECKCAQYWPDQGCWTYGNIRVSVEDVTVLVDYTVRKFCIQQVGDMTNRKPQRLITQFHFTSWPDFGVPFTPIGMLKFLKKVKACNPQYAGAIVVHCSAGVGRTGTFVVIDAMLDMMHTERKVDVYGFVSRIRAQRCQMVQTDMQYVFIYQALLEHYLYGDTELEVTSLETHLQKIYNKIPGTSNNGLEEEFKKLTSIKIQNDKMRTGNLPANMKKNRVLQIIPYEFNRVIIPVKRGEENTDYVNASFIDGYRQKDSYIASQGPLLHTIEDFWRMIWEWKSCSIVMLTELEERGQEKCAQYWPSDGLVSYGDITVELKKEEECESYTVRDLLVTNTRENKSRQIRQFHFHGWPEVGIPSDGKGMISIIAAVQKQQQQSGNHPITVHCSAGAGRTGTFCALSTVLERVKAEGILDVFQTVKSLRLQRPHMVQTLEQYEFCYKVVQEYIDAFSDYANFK

Question: With O=C(O)c1cc2c(C#Cc3cc(F)cc(F)c3)c(-c3ccccc3)oc2cc1O as the compound, how does the IC50 [1] read?
Answer: > 30 µM

Question: What about the IC50 [2] of the same compound?
Answer: > 10 µM

Question: What about the IC50 [3] of the same compound?
Answer: > 10 µM

Question: And the IC50 [4]?
Answer: 6.1 µM
